Data reported in patent US20250388567A1, “SELECTIVE G PROTEIN-COUPLED RECEPTOR KINASE 5 INHIBITORS, COMPOSITIONS, AND METHODS OF USE” (Purdue Research Foundation, priority 2022, published 2025).
pIC50: −log10 of the molar value.

Biological target: human GRK5 (Homo sapiens (Human), UniProt P34947)
Assay: GRK5 radiometric inhibition assay (tubulin phosphorylation, [γ-32P]-ATP)
Type: biochemical
Conditions: 50 nM GRK, 500 nM tubulin, 5 μM ATP
Description: (§1) Reactions were quenched at 8 min by addition of 5 μL of 4×SDS gel loading dye to the 10 μL reactions. […] Gels were dried, exposed to a storage phosphor screen overnight, and scanned using a Personal Molecular Imager (Bio-Rad). […] Outliers were eliminated automatically at a 1% Q value. Experiments were performed at least three times.
(§2) Standard control compounds are run during each assay to assess consistency across time, experimenters, and subtle changes in assay conditions that are sometimes required to keep compounds soluble and dispersed (e.g., through addition of DDM or 3% DMSO).

Sequence of human GRK5 (P34947 whole entry): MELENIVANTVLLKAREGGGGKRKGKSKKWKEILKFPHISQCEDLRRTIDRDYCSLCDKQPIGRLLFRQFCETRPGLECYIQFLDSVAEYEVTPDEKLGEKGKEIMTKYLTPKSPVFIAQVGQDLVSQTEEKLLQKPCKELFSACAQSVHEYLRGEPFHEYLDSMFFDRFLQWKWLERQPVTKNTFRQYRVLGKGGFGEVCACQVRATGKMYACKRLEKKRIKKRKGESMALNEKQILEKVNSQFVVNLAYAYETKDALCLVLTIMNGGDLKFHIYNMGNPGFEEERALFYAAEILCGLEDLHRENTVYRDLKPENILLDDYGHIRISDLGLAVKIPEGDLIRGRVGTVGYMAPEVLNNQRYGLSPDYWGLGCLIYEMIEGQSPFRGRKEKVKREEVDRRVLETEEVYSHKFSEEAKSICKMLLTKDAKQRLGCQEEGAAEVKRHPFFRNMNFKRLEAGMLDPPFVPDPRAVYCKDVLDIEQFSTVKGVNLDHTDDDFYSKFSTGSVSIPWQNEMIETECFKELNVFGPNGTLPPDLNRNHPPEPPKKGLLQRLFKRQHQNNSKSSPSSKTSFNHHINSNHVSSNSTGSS

pIC50 | Compound
7.00 to 9.00 | Cc1[nH]c(/C=C2\C(=O)Nc3ccc(C(=O)N[C@H](C)c4ccc(F)cc4)cc32)c(C)c1C(=O)NCC1CCCO1 (mixture of isomers) [Compound 35]
7.00 to 9.00 | Cc1[nH]c(/C=C2\C(=O)Nc3ccc(C(=O)N[C@H](C)c4ccccc4)cc32)c(C)c1C(=O)NC1CCOC1 (mixture of isomers) [Compound 39]
7.00 to 9.00 | Cc1[nH]c(/C=C2\C(=O)Nc3ccc(C(=O)N[C@H](C)c4ccccc4)cc32)c(C)c1C(=O)NCC1CCOC1 (mixture of isomers) [Compound 40]
6.00 to 7.00 | COc1cccc2[nH]c(C(O)C(=O)Nc3c(C)[nH]c(/C=C4\C(=O)Nc5ccc(C(=O)N[C@H](C)c6ccc(F)cc6)cc54)c3C)cc12 (stereo partly drawn) [Compound 4]
6.00 to 7.00 | Cc1[nH]c(/C=C2\C(=O)Nc3ccc(C(=O)N[C@H](C)c4ccccc4)cc32)c(C)c1C(=O)N[C@@H]1c2ccccc2C[C@@H]1O [Compound 5]
6.00 to 7.00 | Cc1[nH]c(/C=C2\C(=O)Nc3ccc(C(=O)N[C@H](C)c4ccccc4)cc32)c(C)c1C(=O)N[C@@H]1c2ccccc2C[C@H]1O [Compound 6]
6.00 to 7.00 | Cc1[nH]c(/C=C2\C(=O)Nc3ccc(C(=O)N[C@H](C)c4ccccc4)cc32)c(C)c1C(=O)N[C@H]1c2ccccc2C[C@@H]1O [Compound 7]
6.00 to 7.00 | Cc1[nH]c(/C=C2\C(=O)Nc3ccc(C(=O)N[C@H](C)c4ccccc4)cc32)c(C)c1C(=O)N[C@H]1c2ccccc2C[C@H]1O [Compound 8]
< 5.00 | Cc1[nH]c(/C=C2\C(=O)Nc3ccc(C(=O)N[C@@H]4CCc5ccccc54)cc32)c(C)c1NC(=O)C(=O)c1ccco1 [Compound 9]
6.00 to 7.00 | Cc1[nH]c(/C=C2\C(=O)Nc3ccc(C(=O)N[C@@H]4CCc5ccccc54)cc32)c(C)c1NC(=O)C(O)c1ccco1 (stereo partly drawn) [Compound 10]
5.00 to 6.00 | Cc1[nH]c(/C=C2\C(=O)Nc3ccc(C(=O)N[C@H]4CCc5ccccc54)cc32)c(C)c1NC(=O)C(=O)c1ccco1 [Compound 11]
5.00 to 6.00 | Cc1[nH]c(/C=C2\C(=O)Nc3ccc(C(=O)N[C@H]4CCc5ccccc54)cc32)c(C)c1NC(=O)C(O)c1ccco1 (stereo partly drawn) [Compound 12]
6.00 to 7.00 | Cc1[nH]c(CC2C(=O)Nc3ccc(C(=O)N[C@H](C)c4ccc(F)cc4)cc32)c(C)c1NC(=O)[C@H](O)c1ccco1 (stereo partly drawn) [Compound 13]
5.00 to 6.00 | Cc1[nH]c(/C=C2\C(=O)Nc3ccc(C(=O)N[C@H](C)c4ccccc4)cc32)c(C)c1C(=O)N[C@@H]1CCc2ccccc21 [Compound 16]
< 5.00 | Cc1[nH]c(/C=C2\C(=O)Nc3ccc(C(=O)N[C@H](C)c4ccccc4)cc32)c(C)c1C(=O)N[C@H]1CCc2ccccc21 [Compound 17]
6.00 to 7.00 | Cc1[nH]c(/C=C2\C(=O)Nc3ccc(C(=O)N[C@H](C)c4ccccc4)cc32)c(C)c1C(O)C#N (stereo partly drawn) [Compound 18]
6.00 to 7.00 | Cc1[nH]c(/C=C2\C(=O)Nc3ccc(C(=O)N[C@H](C)c4ccc(F)cc4)cc32)c(C)c1C(=O)N[C@@H]1c2ccccc2C[C@H]1O [Compound 19]
6.00 to 7.00 | Cc1[nH]c(/C=C2\C(=O)Nc3ccc(C(=O)N[C@H](C)c4ccccc4)cc32)c(C)c1C(=O)N[C@H]1C(=O)Cc2ccccc21 [Compound 20]
7.00 to 9.00 | Cc1[nH]c(/C=C2\C(=O)Nc3ccc(C(=O)N[C@H](C)c4ccc(F)cc4)cc32)c(C)c1NC(=O)C(O)c1ccoc1 (stereo partly drawn) [Compound 22]

Compound | pIC50
Cc1[nH]c(/C=C2\C(=O)Nc3ccc(C(=O)N[C@H](C)c4ccc(F)cc4)cc32)c(C)c1NC(=O)c1ccoc1 [Compound 21] | 7.00 to 9.00

Biological target: bovine GRK2 (Bos taurus (Bovine), UniProt P21146)
Assay: GRK2 radiometric inhibition assay (tubulin phosphorylation, [γ-32P]-ATP)
Type: biochemical
Conditions: 50 nM GRK, 500 nM tubulin, 5 μM ATP
Description: as §1, §2

Sequence of bovine GRK2 (P21146 whole entry): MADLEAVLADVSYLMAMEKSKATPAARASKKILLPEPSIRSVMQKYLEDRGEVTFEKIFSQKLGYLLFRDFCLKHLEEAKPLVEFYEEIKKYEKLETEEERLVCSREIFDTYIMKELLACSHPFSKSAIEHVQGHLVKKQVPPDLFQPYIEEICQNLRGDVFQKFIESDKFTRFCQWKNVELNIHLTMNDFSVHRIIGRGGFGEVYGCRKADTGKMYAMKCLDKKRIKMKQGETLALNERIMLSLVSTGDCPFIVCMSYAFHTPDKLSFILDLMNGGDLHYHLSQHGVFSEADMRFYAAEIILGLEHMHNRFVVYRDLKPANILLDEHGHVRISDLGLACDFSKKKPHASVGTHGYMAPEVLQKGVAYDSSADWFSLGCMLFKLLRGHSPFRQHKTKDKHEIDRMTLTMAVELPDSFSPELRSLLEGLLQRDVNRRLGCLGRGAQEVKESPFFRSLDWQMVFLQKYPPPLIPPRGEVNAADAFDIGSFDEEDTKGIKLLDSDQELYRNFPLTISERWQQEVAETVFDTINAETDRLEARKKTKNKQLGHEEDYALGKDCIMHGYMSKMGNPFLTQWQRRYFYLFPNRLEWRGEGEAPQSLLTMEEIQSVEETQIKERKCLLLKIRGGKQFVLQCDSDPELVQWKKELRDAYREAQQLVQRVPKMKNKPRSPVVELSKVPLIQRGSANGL

pIC50 | Compound
< 5.00 | Cc1[nH]c(/C=C2\C(=O)Nc3ccc(C(=O)N[C@H](C)c4ccc(F)cc4)cc32)c(C)c1C(=O)NCC1CCCO1 (mixture of isomers) [Compound 35]
5.00 to 6.00 | Cc1[nH]c(/C=C2\C(=O)Nc3ccc(C(=O)N[C@H](C)c4ccccc4)cc32)c(C)c1C(=O)NC1CCOC1 (mixture of isomers) [Compound 39]
5.00 to 6.00 | Cc1[nH]c(/C=C2\C(=O)Nc3ccc(C(=O)N[C@H](C)c4ccccc4)cc32)c(C)c1C(=O)NCC1CCOC1 (mixture of isomers) [Compound 40]
< 5.00 | COc1cccc2[nH]c(C(O)C(=O)Nc3c(C)[nH]c(/C=C4\C(=O)Nc5ccc(C(=O)N[C@H](C)c6ccc(F)cc6)cc54)c3C)cc12 (stereo partly drawn) [Compound 4]
< 5.00 | Cc1[nH]c(/C=C2\C(=O)Nc3ccc(C(=O)N[C@H](C)c4ccccc4)cc32)c(C)c1C(=O)N[C@@H]1c2ccccc2C[C@@H]1O [Compound 5]
< 5.00 | Cc1[nH]c(/C=C2\C(=O)Nc3ccc(C(=O)N[C@H](C)c4ccccc4)cc32)c(C)c1C(=O)N[C@@H]1c2ccccc2C[C@H]1O [Compound 6]
< 5.00 | Cc1[nH]c(/C=C2\C(=O)Nc3ccc(C(=O)N[C@H](C)c4ccccc4)cc32)c(C)c1C(=O)N[C@H]1c2ccccc2C[C@@H]1O [Compound 7]
< 5.00 | Cc1[nH]c(/C=C2\C(=O)Nc3ccc(C(=O)N[C@H](C)c4ccccc4)cc32)c(C)c1C(=O)N[C@H]1c2ccccc2C[C@H]1O [Compound 8]
< 5.00 | Cc1[nH]c(/C=C2\C(=O)Nc3ccc(C(=O)N[C@@H]4CCc5ccccc54)cc32)c(C)c1NC(=O)C(=O)c1ccco1 [Compound 9]
< 5.00 | Cc1[nH]c(/C=C2\C(=O)Nc3ccc(C(=O)N[C@@H]4CCc5ccccc54)cc32)c(C)c1NC(=O)C(O)c1ccco1 (stereo partly drawn) [Compound 10]
< 5.00 | Cc1[nH]c(/C=C2\C(=O)Nc3ccc(C(=O)N[C@H]4CCc5ccccc54)cc32)c(C)c1NC(=O)C(=O)c1ccco1 [Compound 11]
< 5.00 | Cc1[nH]c(/C=C2\C(=O)Nc3ccc(C(=O)N[C@H]4CCc5ccccc54)cc32)c(C)c1NC(=O)C(O)c1ccco1 (stereo partly drawn) [Compound 12]
< 5.00 | Cc1[nH]c(CC2C(=O)Nc3ccc(C(=O)N[C@H](C)c4ccc(F)cc4)cc32)c(C)c1NC(=O)[C@H](O)c1ccco1 (stereo partly drawn) [Compound 13]
< 5.00 | Cc1[nH]c(/C=C2\C(=O)Nc3ccc(C(=O)N[C@H](C)c4ccccc4)cc32)c(C)c1C(=O)N[C@@H]1CCc2ccccc21 [Compound 16]
< 5.00 | Cc1[nH]c(/C=C2\C(=O)Nc3ccc(C(=O)N[C@H](C)c4ccccc4)cc32)c(C)c1C(=O)N[C@H]1CCc2ccccc21 [Compound 17]
< 5.00 | Cc1[nH]c(/C=C2\C(=O)Nc3ccc(C(=O)N[C@H](C)c4ccccc4)cc32)c(C)c1C(O)C#N (stereo partly drawn) [Compound 18]
< 5.00 | Cc1[nH]c(/C=C2\C(=O)Nc3ccc(C(=O)N[C@H](C)c4ccc(F)cc4)cc32)c(C)c1C(=O)N[C@@H]1c2ccccc2C[C@H]1O [Compound 19]
< 5.00 | Cc1[nH]c(/C=C2\C(=O)Nc3ccc(C(=O)N[C@H](C)c4ccccc4)cc32)c(C)c1C(=O)N[C@H]1C(=O)Cc2ccccc21 [Compound 20]
5.00 to 6.00 | Cc1[nH]c(/C=C2\C(=O)Nc3ccc(C(=O)N[C@H](C)c4ccc(F)cc4)cc32)c(C)c1NC(=O)C(O)c1ccoc1 (stereo partly drawn) [Compound 22]
